# Assay results as given in patent publication US20250026765A1, “SPIROHETEROCYCLE DERIVATIVE HAVING SEROTONIN RECEPTOR BINDING ACTIVITY” (Shionogi & Co., Ltd., priority 2021, published 2025).
# Read-outs that look alike come from different tables or passages of the source.
# Experiments:
# [1] = molecular target: human recombinant 5-HT2A receptor (Homo sapiens (Human), UniProt P28223); assay: 5-HT2A receptor binding inhibition test ([3H]-Ketanserin); details: Jump-In HEK cell membrane, 25° C. 1.5 hours
# In short: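 Membranes from Jump-In HEK cells expressing the receptor were incubated with [3H]-ketanserin at about its Kd (from Scatchard analysis) in Tris-HCl pH 7.4 buffer for 1.5 h at 25° C, then filtered and counted. Non-specific binding was defined with 500 μmol/L serotonin, and Ki was taken from dose-response curves.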
# [2] = molecular target: human recombinant 5-HT2C receptor (Homo sapiens (Human), UniProt P28335); assay: 5-HT2C receptor binding inhibition test ([3H]-Mesulergine); details: Jump-In HEK cell membrane, 37° C. 2 hours
# In short: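 Radioligand displacement on HEK membranes expressing human recombinant 5-HT2C (0.5 μg/well), [3H]-mesulergine near its Kd, in pH 7.4 Tris-HCl buffer with NaCl, MgCl2, KCl, CaCl2 and 0.1% BSA, 2 h at 37° C. Bound radioactivity measured after GF/B filtration; non-specific binding defined with 500 μmol/L serotonin, Ki from dose-response curve.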
# [3] = read-out: human serotonin 5-HT2A receptor binding activity Ki
# [4] = read-out: human serotonin 5-HT2C receptor binding activity Ki
# Sequence of human recombinant 5-HT2C receptor (P28335 33-458): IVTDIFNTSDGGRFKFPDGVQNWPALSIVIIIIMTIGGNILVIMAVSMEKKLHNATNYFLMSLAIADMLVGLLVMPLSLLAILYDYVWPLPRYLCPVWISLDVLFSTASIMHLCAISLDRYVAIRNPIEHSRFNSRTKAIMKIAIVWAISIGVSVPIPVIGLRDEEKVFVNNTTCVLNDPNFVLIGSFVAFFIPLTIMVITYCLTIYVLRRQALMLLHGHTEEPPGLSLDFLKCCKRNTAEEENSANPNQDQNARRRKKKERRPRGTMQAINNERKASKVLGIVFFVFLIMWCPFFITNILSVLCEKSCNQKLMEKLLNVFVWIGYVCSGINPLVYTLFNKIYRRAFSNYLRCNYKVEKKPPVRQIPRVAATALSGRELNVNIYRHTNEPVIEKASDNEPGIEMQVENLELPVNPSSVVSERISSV
# Sequence of human recombinant 5-HT2A receptor (P28223 whole entry): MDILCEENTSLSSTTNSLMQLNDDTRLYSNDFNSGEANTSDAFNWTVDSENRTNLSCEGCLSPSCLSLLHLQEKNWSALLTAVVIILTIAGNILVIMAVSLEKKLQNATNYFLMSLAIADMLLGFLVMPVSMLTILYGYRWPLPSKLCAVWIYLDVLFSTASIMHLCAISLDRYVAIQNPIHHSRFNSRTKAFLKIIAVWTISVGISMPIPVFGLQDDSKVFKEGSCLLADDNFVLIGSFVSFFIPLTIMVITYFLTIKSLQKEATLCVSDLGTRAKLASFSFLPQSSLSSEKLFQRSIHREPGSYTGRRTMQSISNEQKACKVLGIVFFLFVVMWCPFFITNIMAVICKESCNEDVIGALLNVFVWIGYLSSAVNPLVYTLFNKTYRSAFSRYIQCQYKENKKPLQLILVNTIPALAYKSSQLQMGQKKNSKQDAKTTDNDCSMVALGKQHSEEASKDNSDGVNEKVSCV
SMILES,"Ki [1, 3]","Ki [2, 4]",Ki ([1]; read-out: h-5-HT2A Ki),Ki ([2]; read-out: h-5-HT2C Ki)
CC(C)COc1ccc(CC2=NOC3(CCNCC3)N2Cc2ccc(F)cc2O)cc1 [Compound I-003],19.8 nM,4.11 nM,,
CC(C)COc1ccc(CN(Cc2cnn(C)n2)C2=NOC3(CCN(C)CC3)N2)cc1 [Compound I-072],,,< 10 nM,< 10 nM
Cc1cc(CN2C(Cc3ccc(OC(F)F)cc3)=NOC23CCN(C)CC32CC2)nn1C (racemic) [Compound I-035],,,< 10 nM,< 10 nM
CC(C)COc1ccc(CN(Cc2ccn(C)n2)C2=NOC3(CCN(C)CC3)N2)cc1 [Compound I-009],,,< 10 nM,< 10 nM
CCCc1ccc(CN(Cc2coc(C)n2)C2=NOC3(CCN(C)CC3)N2)c(F)c1 [Compound I-109],,,< 10 nM,< 10 nM
Cc1nc(CN(Cc2csc3ccccc23)C2=NOC3(CCN(C)CC3)N2)co1 [Compound I-122],,,< 10 nM,< 10 nM
CCCOc1ccc(CN(Cc2coc(C)n2)C2=NOC3(CCNCC3)N2)c(Cl)c1 [Compound I-129],,,< 10 nM,< 10 nM
CN1CCC2(CC1)NC(N(Cc1ccc(OCC(F)(F)F)cc1)Cc1coc(C3CC3)n1)=NO2 [Compound I-086],,,< 10 nM,< 10 nM
CCCCOc1ccc(CN(Cc2coc(C)n2)C2=NOC3(CCNCC3)N2)cc1 [Compound I-134],,,< 10 nM,< 10 nM

# Next, values leading:
"Ki [1, 3]","Ki [2, 4]",Ki ([1]; read-out: h-5-HT2A Ki),Ki ([2]; read-out: h-5-HT2C Ki),SMILES
0.961 nM,0.524 nM,,,CC(C)COc1ccc(CN(Cc2coc(C3CC3)n2)C2=NOC3(CCN(C)CC3)N2)cc1 [Compound I-049]
,,< 10 nM,10 to 100 nM,CCCOc1ccc(CC2=NOC3(CCN(C)CC3)N2Cc2ccc(F)cn2)cc1 [Compound I-024]
,,< 10 nM,10 to 100 nM,Cc1nc(CN(Cc2ccc3ncccc3c2)C2=NOC3(CCN(C)CC3)N2)co1 [Compound I-096]
,,10 to 100 nM,< 10 nM,Cc1nc(CN(Cc2cccs2)C2=NOC3(CCN(C)CC3)N2)co1 [Compound I-069]
,,< 10 nM,10 to 100 nM,CC(C)COc1ccc(CC2=NOC3(CCN(C)CC3)N2Cc2ccc(F)cc2O)cc1 [Compound I-004]
,,100 to 500 nM,100 to 500 nM,"CC(C)COc1ccc(CN(C2=NOC3(CCN(C)CC3)N2)C(C)c2ccc(F)cc2)cc1 (single isomer, unassigned) [Compound I-074]"
,,< 10 nM,100 to 500 nM,Cc1ccc(CN(Cc2ccc(OCC(C)C)cc2)C2=NOC3(CCNCC3)N2)cn1 [Compound I-078]
0.96 nM,3.08 nM,,,Cc1nc(CN(Cc2cc3ccccc3o2)C2=NOC3(CCN(C)CC3)N2)co1 [Compound I-099]
,,100 to 500 nM,100 to 500 nM,CC(C)COc1ccc(CN(Cc2coc(-c3ccccc3)n2)C2=NOC3(CCN(C)CC3)N2)cc1 [Compound I-118]
1.49 nM,5.46 nM,,,Cc1nc(CN(Cc2nc3cc(Cl)ccc3o2)C2=NOC3(CCN(C)CC3)N2)co1 [Compound I-089]
10.1 nM,19 nM,,,CC(C)COc1ccc(CN(Cc2ccn(C)n2)C2=NC(=O)C3(CCN(C)CC3)N2)cc1 [Compound I-033]
1.22 nM,0.585 nM,,,Cc1nc(CN(Cc2ccc(OCC(C)C)cc2)C2=NOC3(CCN(C)CC3)N2)co1 [Compound I-011]
,,< 10 nM,10 to 100 nM,CC(C)COc1ccc(CN(Cc2ccc(F)cn2)C2=NOC3(CCN(C)CC3)N2)cc1 [Compound I-007]
